# Experimental data: patent US20240082252A1, “COMPOSITIONS AND METHODS RELATING TO CANCER” (The Penn State Research Foundation, priority 2015, published 2024)
# Columns and labels:
# C8161.C19 cells = test: cytotoxicity of pharmacological agents alone or combined (CellTiter 96), 48 hours; format: cell-based; details: for cell viability, single agents: 0.15 μM MK1775, 0.31 to 2.5 μM GDC0068, 1.25 to 10 μM AZD5363, FIG. 3E, 3G
# Protocol: (§1) Cytotoxicity of these agents alone or in combination in melanoma cells was measured by plating 2.5 to 5×10^3 cells into 96-well plates followed by growth for 24 to 48 hours in a humidified 37° C. cell culture incubator. […] Control cells were treated with vehicle (DMSO) alone. Cytotoxicity was measured using the CellTiter 96 Aqueous Non-Radioactive Cell Proliferation Assay (Promega). The combined effects of MK1775 and GDC0068 were quantified using CalcuSyn software.
# [1] = tested on: UACC 903 human melanoma tumors; test: UACC 903 melanoma xenograft, oral drug treatment; format: in vivo, athymic-Foxn1^nu nude mice; details: MK1775 50 mg/kg, AZD5363 150 mg/kg, oral daily for 18 days; vs vehicle
# Protocol: Tumor kinetics studies were undertaken in athymic-Foxn1^nu nude mice (Harlan Laboratories, Indianapolis, IN, USA). In genetic knockdown models, siRNA targeting AKT3 and WEE1 alone or in combination was nucleofected into 1×10^6 UACC 903 or 1205 Lu cells as described above. Cells transfected with scrambled siRNA were used as a control. After plating and allowing the cells to recover for 48 hours, 1×10^6 cells were aliquoted in 0.2 ml of 10% FBS-DMEM and then injected subcutaneously above both the left and right rib cages of 4-6 week old female mice (3-4 mice/group). Dimensions of developing tumors were measured on alternate days, using calipers to estimate size by multiplying length, width and depth in mm^3. For pharmacological synergy studies, 1×10^6 UACC 903 cells were injected subcutaneously above both the left and right rib cages of 4-6 week old female mice. […] Drugs were prepared in 0.5% methylcellulose, 0.5% Tween 80, 5% DMSO and 200 uL administered per oral treatment.
# At the end of the study, blood samples were collected from each mouse, serum was separated and levels of various toxicity markers were analyzed. All of the measured biomarkers in samples collected from mice were within the normal range which excludes any toxicity caused by these drugs. […]
# [2] = serum analysis of toxicity markers at end of study; format: in vivo, mice; details: for CREA / BUN: kidney; for CREA: reference levels 0.1-0.3; for BUN: reference levels 18-33.7; for TBIL / ALB / SGPT (ALT) / ALKP: liver function; for TBIL: reference levels 0.1-0.9; for ALB: reference levels 2.5-4.8; for SGPT (ALT): reference levels 33-132, UACC 903 xenograft mice, oral daily; for ALKP: reference levels 62-209; for GLOB: no reference levels printed; for TP / CHOL / GLU: others; for TP: reference levels 3.6-6.6; for CHOL: reference levels 92-157; for GLU: reference levels 198-247; for AMYL: pancreas, reference levels 1691-3615
# Protocol: At the end of the study, blood samples were collected from each mouse, serum was separated and levels of various toxicity markers were analyzed. All of the measured biomarkers in samples collected from mice were within the normal range which excludes any toxicity caused by these drugs. Furthermore, visceral organs such as, heart, lungs, liver, intestine, spleen and kidney from each mouse were also collected, fixed in formalin and embedded in paraffin to assess any toxicity associated abnormality in cell morphology and tissue structure following hematoxylin and eosin staining.
# [3] = tested on: 1205 Lu melanoma xenografts; test: 1205 Lu melanoma xenograft, oral drug treatment; format: in vivo, Athymic-Foxnlnu nude mice; details: for reduced growth of 1205 Lu xenograft / tumor development: AZD5363 150 mg/kg, MK1775 50 mg/kg, oral daily for 18 days, vs control, FIG. 4C; for reduced growth of 1205 Lu xenograft tumors: b.i.d.: AZD5363 130 mg/kg 4 days on/3 off, MK1775 30 mg/kg 3 days on/4 off, consecutive dosing in combination, 18 days, FIG. 4E
# Protocol: 1205 Lu melanoma xenograft tumors were established by subcutaneous injection of 1×10^6 1205 Lu cells injected above both left and right rib cages of 4-6 week-old female Athymic-Foxnlnu nude mice (Harlan Sprague Dawley). Six days later, when a fully vascularized tumor had formed, mice were randomly divided into treatment groups described below. Body weight in grams and dimensions of developing tumors in mm^3 were measured on alternate days (1-6). Drugs were prepared in 0.5% methylcellulose, 0.5% Tween 80, 5% DMSO and […] administered per oral treatment.
# Group 1 (vehicle control, 0.5% methylcellulose, 0.5% Tween 80, 5% DMSO) daily for 18 days;
# Group 3 (MK1775, 50 mg/kg) daily for 18 days; and
# Group 5 (vehicle control, 0.5% methylcellulose, 0.5% Tween 80, 5% DMSO) b.i.d. (twice a day) for 18 days;
# Group 7, (MK1775, 30 mg/kg b.i.d. for 3 days on, 4 days off) for 18 days; and […]
# UACC 903 cells [4] = test: RNA sequencing, differentially expressed genes; format: cell-based, human; details: 24 hours after treatment; intensity difference test p<0.05
# Description: Twenty-four hours following treatment with tested agents, total RNA was extracted from UACC 903 cells using mirVana RNA isolation kit (Life Technologies, Grand Island, NY). Next, using SureSelect Strand Specific RNA Library Preparation kit (Agilent) cDNA libraries were constructed, polyA RNA was purified with oligo (dT) beads and then extracted RNA was processed through fragmentation, reverse transcription, end repair, 3′-end adenylation, adaptor ligation, PCR amplification and SPRI bead purification (Beckman Coulter). For multiplexed high-throughput sequencing, the unique barcode sequences were incorporated. Libraries were then denatured using the Illumina protocol, diluted with pre-chilled hybridization buffer and loaded onto TruSeq SR v3 flow cells on an Illumina HiSeq 2500 (50 cycles, single-read). Sequencing reads were extracted by using Illumina CASAVA pipeline Version 1.8 and aligned to the human reference genome (hg38) using Tophat (version 2.0.9) as described in detail in Trapnell et al, Bioinformatics 2009; 25(9): 1105-11. SeqMonk (version 0.32.0) was used for the identification of differentially expressed genes. Following RNA-Seq quantitation, 75% percentile normalization was performed and significant alterations were determined via intensity difference test with Benjamini and Hochberg multiple testing correction (p-value <0.05). […]
# UACC 903 melanoma cells = test: Western blotting of treated cells; format: cell-based, human; details: 1, 3 or 10 μM AZD5363, FIG. 5C; for phosphorylated CDK1 levels: 1 μM MK1775
# Protocol: Cell lysates were collected 48-96 hours after siRNA transfection or drug treatment by washing plates with PBS followed by addition of RIPA lysis buffer containing Halt Protease & Phosphatase Inhibitor Cocktail (Thermo Scientific, Rockford, IL, USA). Lysates were centrifuged (10,000×g) for 10 minutes at 4° C. to remove cell debris. Protein concentration was measured using the bicinchoninic acid assay kit (Thermo Scientific, Rockford, IL, USA). 25 μg of respective lysates were loaded onto 4-12% Bis-Tris NuPAGE gels (Life Technologies, Grand Island, NY) and run in an XCell SureLock Mini-Cell gel apparatus (Life Technologies, Grand Island, NY), transferred to polyvinylidene difluoride membranes (PVDF) (Pall Corporation, Port Washington, NY), probed with respective primary antibody followed by horseradish peroxidase-conjugated secondary antibody, and exposed using ECL Western Blotting Substrate (Thermo Scientific, Rockford, IL, USA) or Supersignal West Femto Chemiluminescent Substrate (Thermo Scientific, Rockford, IL, USA). Primary antibodies used: p21 (sc-756), p27 (sc-528), PLK1 (sc-17783), p53 (sc-6243) and ERK2 (sc-1647) from Santa Cruz Biotechnology (Dallas, TX), pAKT (S473 in AKT1, 5474 in AKT2 and 5472 in AKT3, #9271), AKT3 (#3788), Total AKT (#4685), pWEE1 (#4910), WEE1 (#4936), p-CDC2 (Y15) (#9111), p-CDC2 ([…]) (#9114), CDC2 (#9112) CHK1 (#2345), pCHK1 (#2344), pRB ([…]/811) (#9308), pRB ([…]) (#9301), pRB ([…]) (#9307), RB (#9309), FOXM1 (#5436), p-Histone H2AX (S139) (#2577) and Cleaved PARP (#9541) from Cell Signaling (Danvers, MA). Secondary antibodies goat anti-rabbit IgG-HRP (sc-2004) and goat anti-mouse IgG-HRP (sc-2005) were purchased from Santa Cruz Biotechnology, Dallas, TX.
# UACC 903 cells [5] = test: cytotoxicity of pharmacological agents alone or combined (CellTiter 96), 48 hours; format: cell-based; details: Homo sapiens, UACC-903, read-out: reduced cell viability
# Protocol: as §1
SMILES,"cell viability, single agents (C8161.C19 cells)",decrease in tumor size / tumor development [1],CREA [2],BUN [2],TBIL [2],ALB [2],SGPT (ALT) [2],ALKP [2],GLOB [2],TP [2],CHOL [2],GLU [2],AMYL [2],reduced growth of 1205 Lu xenograft / tumor development [3],reduced growth of 1205 Lu xenograft tumors [3],number of significantly deregulated genes (UACC 903 cells [4]),phosphorylated CDK1 levels (UACC 903 melanoma cells),phosphorylated PRAS40 levels (UACC 903 melanoma cells),relative single-agent activity (C8161.C19 cells; C8161.C19 cell line),cytotoxicity at 0.63 µM (UACC 903 cells [5])
NC1(C(=O)N[C@@H](CCO)c2ccc(Cl)cc2)CCN(c2ncnc3[nH]ccc23)CC1 [AZD5363],reduced cell viability,36%,0.1 ± 0^ mg/dL,25.8 ± 2.2 mg/dL,0.5 ± 0.1 mg/dL,2.5 g/dL,41.3 ± 7.4 u/L,86.3 ± 7.5 u/L,2.6 ± 0.1 g/dL,5.1 ± 0.1 g/dL,113.5 ± 7.6 mg/dL,214 ± 30.6 mg/dL,1891 ± 129.7 U/L,~50%,~30%,64 genes,reduced the phosphorylation of CDK1 in a dose-dependent manner,dose-dependently decreased phosphorylated PRAS40 levels,,
"CC(C)NC[C@@H](C(=O)N1CCN(c2ncnc3c2[C@H](C)C[C@H]3O)CC1)c1ccc(Cl)cc1 [GDC0068, ipatasertib]",reduced cell viability,,,,,,,,,,,,,,,,,,,
"C=CCn1c(=O)c2cnc(Nc3ccc(N4CCN(C)CC4)cc3)nc2n1-c1cccc(C(C)(C)O)n1 [MK1775, 2-allyl-1-(6-(2-hydroxypropan-2-yl)pyridin-2-yl)-6-((4-(4-methylpiperazin-1-yl)phenyl)amino)-1H-pyrazolo[3,4-d]pyrimidin-3(2H)-one]",reduced cell viability,ineffective,0.1 ± 0 mg/dL,25.3 ± 1.9 mg/dL,0.6 ± 0 mg/dL,0.0026 ± 0.0001 g/dL,55 ± 10.1 u/L,75 ± 5.6 u/L,2.6 ± 0 g/dL,5.2 ± 0.1 g/dL,142.5 ± 4.6 mg/dL,237.5 ± 31.4 mg/dL,2251.8 ± 50.2 U/L,~50%,~30%,94 genes,decreased phosphorylated CDK1 levels,,significantly more effective,35 to 40%
